From patent publication US6620828B2, “Thiazole compounds and pharmaceutical compositions for inhibiting protein kinases and methods for their use” (Agouron Pharmaceuticals, Inc., priority 1999, dated 2003)

Tested on: human umbilical vein endothelial cells (HUVEC)
Assay: HUVEC proliferation assay
Type: cell-based
Conditions: Homo sapiens, HUVEC, 10 nM; crude combinatorial urea library; read-out: Inhibition of HUVEC Proliferation % inhibition @ 10 nM
How it was run: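 Exponentially growing HUVEC were serum-starved 24 h (F12K + 1% FBS), pre-treated 1 h with compound (0.1% DMSO final), then stimulated with 6 ng/ml VEGF. Proliferation was read 72 h later by MTT reduction (A595). IC50 came from seven 0.5-log concentrations in triplicate; screens gave % inhibition relative to VEGF-only and starved wells.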

| SMILES | inhibition at 0.01 µM |
| --- | --- |
| COc1cccc(C(=O)Nc2cccc(-c3csc(-c4sc(NC(=O)N[C@@H](CO)C(N)=O)nc4N)n3)c2)c1 | 5% |
| COc1cccc(C(=O)Nc2cccc(-c3csc(-c4sc(NC(=O)N[C@H]5CC[C@H](O)CC5)nc4N)n3)c2)c1 | -6% |
| COc1cccc(C(=O)Nc2cccc(-c3csc(-c4sc(NC(=O)NCCCC(=O)O)nc4N)n3)c2)c1 | 23% |
| CCN(CCNC(=O)Nc1nc(N)c(-c2nc(-c3cccc(NC(=O)c4cccc(OC)c4)c3)cs2)s1)c1cccc(C)c1 | -10% |
| COc1cccc(C(=O)Nc2cccc(-c3csc(-c4sc(NC(=O)NC(C)CN(C)C)nc4N)n3)c2)c1 (stereo not shown) | 12% |

Same assay, conditions: Homo sapiens, HUVEC, 50 nM; crude combinatorial urea library; read-out: Inhibition of HUVEC Proliferation % inhibition @ 50 nM

| SMILES | inhibition at 0.05 µM |
| --- | --- |
| COc1cccc(C(=O)Nc2cccc(-c3csc(-c4sc(NC(=O)N[C@@H](CO)C(N)=O)nc4N)n3)c2)c1 | 24% |
| COc1cccc(C(=O)Nc2cccc(-c3csc(-c4sc(NC(=O)N[C@H]5CC[C@H](O)CC5)nc4N)n3)c2)c1 | 21% |
| COc1cccc(C(=O)Nc2cccc(-c3csc(-c4sc(NC(=O)NCCCC(=O)O)nc4N)n3)c2)c1 | 24% |
| CCN(CCNC(=O)Nc1nc(N)c(-c2nc(-c3cccc(NC(=O)c4cccc(OC)c4)c3)cs2)s1)c1cccc(C)c1 | 125% |
| COc1cccc(C(=O)Nc2cccc(-c3csc(-c4sc(NC(=O)NC(C)CN(C)C)nc4N)n3)c2)c1 (stereo not shown) | 28% |

Same assay, conditions: Homo sapiens, HUVEC, Inhibition of HUVEC Proliferation; 50 nM; crude combinatorial urea library; read-out: % inhibition @ 50 nM

| SMILES | inhibition at 0.05 µM |
| --- | --- |
| CCN1CCCC1CNC(=O)Nc1nc(N)c(-c2nc(-c3cc(NC(=O)c4cccc(OC)c4)c(F)cc3F)cs2)s1 (stereo not shown) | 85% |
| COc1cccc(C(=O)Nc2cc(-c3csc(-c4sc(NC(=O)NCCN5CCNCC5)nc4N)n3)c(F)cc2F)c1 | 46% |
| COc1cccc(C(=O)Nc2cc(-c3csc(-c4sc(NC(=O)NCC(C)C)nc4N)n3)c(F)cc2F)c1 | 38% |
| COc1cccc(C(=O)Nc2cc(-c3csc(-c4sc(NC(=O)NC5CC(C)(C)NC(C)(C)C5)nc4N)n3)c(F)cc2F)c1 | 89% |
| COc1cccc(C(=O)Nc2cc(-c3csc(-c4sc(NC(=O)NCC5CCCO5)nc4N)n3)c(F)cc2F)c1 (stereo not shown) | 92% |
| COc1cccc(C(=O)Nc2cc(-c3csc(-c4sc(NC(=O)NCCCN5CCCC5)nc4N)n3)c(F)cc2F)c1 | 92% |
| COc1cccc(C(=O)Nc2cc(-c3csc(-c4sc(NC(=O)NCCc5cccnc5)nc4N)n3)c(F)cc2F)c1 | 100% |
| COc1cccc(C(=O)Nc2cc(-c3csc(-c4sc(NC(=O)NC5CCS(=O)(=O)C5)nc4N)n3)c(F)cc2F)c1 (stereo not shown) | 100% |
| COc1cccc(C(=O)Nc2cc(-c3csc(-c4sc(NC(=O)NCCc5c[nH]cn5)nc4N)n3)c(F)cc2F)c1 | 55% |

Same assay, conditions: Homo sapiens, HUVEC, Inhibition of HUVEC Proliferation; 50 nM; crude combinatorial urea library; read-out: Inhibition @ 50 nM

| SMILES | inhibition at 0.05 µM |
| --- | --- |
| COCCNC(=O)Nc1nc(N)c(-c2nc(-c3cc(NC(=O)c4cccc(OC)c4)c(F)cc3F)no2)s1 | 53% |
| COc1cccc(C(=O)Nc2cc(-c3noc(-c4sc(NC(=O)NCc5ccccc5)nc4N)n3)c(F)cc2F)c1 | 61% |
| CCN(CC)CCCC(C)NC(=O)Nc1nc(N)c(-c2nc(-c3cc(NC(=O)c4cccc(OC)c4)c(F)cc3F)no2)s1 (stereo not shown) | 7% |
| CCN1CC(NC(=O)Nc2nc(N)c(-c3nc(-c4cc(NC(=O)c5cccc(OC)c5)c(F)cc4F)no3)s2)CN1CC | 92% |
| COc1cccc(C(=O)Nc2cc(-c3noc(-c4sc(NC(=O)NCC(C)(C)C)nc4N)n3)c(F)cc2F)c1 | 55% |
| COc1cccc(C(=O)Nc2cc(-c3noc(-c4sc(NC(=O)NCP(=O)(O)O)nc4N)n3)c(F)cc2F)c1 | 4% |
| COc1cccc(C(=O)Nc2cc(-c3noc(-c4sc(NC(=O)NCCc5ccncc5)nc4N)n3)c(F)cc2F)c1 | 99% |

Same assay, conditions: Homo sapiens, HUVEC, Table I screening results; 150 nM; crude combinatorial amide library

| SMILES | inhibition at 0.15 µM |
| --- | --- |
| COc1cc(Nc2nc(N)c(-c3nc(-c4cccc(NC(=O)CCCc5ccccc5)c4)cs3)s2)cc(OC)c1OC | 15% |
| COc1cc(Nc2nc(N)c(-c3nc(-c4cccc(NC(=O)c5ccc(C(=O)c6ccccc6)cc5)c4)cs3)s2)cc(OC)c1OC | 7% |
| COc1cc(Nc2nc(N)c(-c3nc(-c4cccc(NC(=O)[C@@H]5C[C@H]5c5ccccc5)c4)cs3)s2)cc(OC)c1OC | -4% |
| COc1cc(Nc2nc(N)c(-c3nc(-c4cccc(NC(=O)c5cc6cccc(OC)c6o5)c4)cs3)s2)cc(OC)c1OC | 21% |
| COc1cc(Nc2nc(N)c(-c3nc(-c4cccc(NC(=O)CCc5nc6ccccc6[nH]5)c4)cs3)s2)cc(OC)c1OC | 27% |
| COc1cc(Nc2nc(N)c(-c3nc(-c4cccc(NC(=O)c5ccc(CCCl)cc5)c4)cs3)s2)cc(OC)c1OC | 59% |
| COc1cc(Nc2nc(N)c(-c3nc(-c4cccc(NC(=O)C5C(C=C(C)C)C5(C)C)c4)cs3)s2)cc(OC)c1OC (stereo not shown) | 19% |
| COc1cc(Nc2nc(N)c(-c3nc(-c4cccc(NC(=O)c5cc6ccccc6o5)c4)cs3)s2)cc(OC)c1OC [drawing 844] | 40% |
| COc1cc(Nc2nc(N)c(-c3nc(-c4cccc(NC(=O)C(O)(c5ccccc5)c5ccccc5)c4)cs3)s2)cc(OC)c1OC | -8% |
| COc1cc(Nc2nc(N)c(-c3nc(-c4cccc(NC(=O)c5cc6c(cc5C)C(C)(C)C(C)CC6(C)C)c4)cs3)s2)cc(OC)c1OC (stereo not shown) | 7% |

Same assay, conditions: Homo sapiens, HUVEC, Table II screening results; 1 nM; crude combinatorial amide library

| SMILES | inhibition at 0.001 µM |
| --- | --- |
| CNC(=O)Nc1nc(N)c(-c2nc(-c3cccc(NC(=O)C4CC5CC(O)C4C5)c3)cs2)s1 (stereo not shown) | 20% |
| CNC(=O)Nc1nc(N)c(-c2nc(-c3cccc(NC(=O)C4(c5ccc(C)cc5)CC4)c3)cs2)s1 | -8% |
| CNC(=O)Nc1nc(N)c(-c2nc(-c3cccc(NC(=O)/C=C/c4cccc(OC)c4)c3)cs2)s1 | -1% |
| CNC(=O)Nc1nc(N)c(-c2nc(-c3cccc(NC(=O)Cc4c(F)cccc4F)c3)cs2)s1 | -3% |
| CNC(=O)Nc1nc(N)c(-c2nc(-c3cccc(NC(=O)C(C)ON=C(C)C)c3)cs2)s1 (stereo not shown) | 6% |
| CNC(=O)Nc1nc(N)c(-c2nc(-c3cccc(NC(=O)C(O)CC(C)C)c3)cs2)s1 (stereo not shown) | -18% |
| CNC(=O)Nc1nc(N)c(-c2nc(-c3cccc(NC(=O)C4CCCN4C(C)=O)c3)cs2)s1 (stereo not shown) | 3% |
| CNC(=O)Nc1nc(N)c(-c2nc(-c3cccc(NC(=O)CCCN(C)C)c3)cs2)s1 | -12% |
| CCNc1ccccc1C(=O)Nc1cccc(-c2csc(-c3sc(NC(=O)NC)nc3N)n2)c1 | -1% |
| C=CCC(=O)Nc1cccc(-c2csc(-c3sc(NC(=O)NC)nc3N)n2)c1 | 8% |
| CNC(=O)Nc1nc(N)c(-c2nc(-c3cccc(NC(=O)CC4=CCCCC4)c3)cs2)s1 | 29% |
| CNC(=O)Nc1nc(N)c(-c2nc(-c3cccc(NC(=O)C4CC(=O)N(C)C4)c3)cs2)s1 (stereo not shown) | 21% |
| CNC(=O)Nc1nc(N)c(-c2nc(-c3cccc(NC(=O)C4CCC(=O)CC4)c3)cs2)s1 | -2% |
| CNC(=O)Nc1nc(N)c(-c2nc(-c3cccc(NC(=O)CCc4ccc(C)cc4)c3)cs2)s1 | 2% |

Same assay, conditions: Homo sapiens, HUVEC, Table II screening results; 10 nM; crude combinatorial amide library; read-out: % inhibition @ 10 nM

| SMILES | inhibition at 0.01 µM |
| --- | --- |
| CNC(=O)Nc1nc(N)c(-c2nc(-c3cccc(NC(=O)C4CC5CC(O)C4C5)c3)cs2)s1 (stereo not shown) | 19% |
| CNC(=O)Nc1nc(N)c(-c2nc(-c3cccc(NC(=O)C4(c5ccc(C)cc5)CC4)c3)cs2)s1 | -6% |
| CNC(=O)Nc1nc(N)c(-c2nc(-c3cccc(NC(=O)/C=C/c4cccc(OC)c4)c3)cs2)s1 | -12% |
| CNC(=O)Nc1nc(N)c(-c2nc(-c3cccc(NC(=O)Cc4c(F)cccc4F)c3)cs2)s1 | -2% |
| CNC(=O)Nc1nc(N)c(-c2nc(-c3cccc(NC(=O)C(C)ON=C(C)C)c3)cs2)s1 (stereo not shown) | -7% |
| CNC(=O)Nc1nc(N)c(-c2nc(-c3cccc(NC(=O)C(O)CC(C)C)c3)cs2)s1 (stereo not shown) | 2% |
| CNC(=O)Nc1nc(N)c(-c2nc(-c3cccc(NC(=O)C4CCCN4C(C)=O)c3)cs2)s1 (stereo not shown) | 27% |
| CNC(=O)Nc1nc(N)c(-c2nc(-c3cccc(NC(=O)CCCN(C)C)c3)cs2)s1 | -40% |
| CCNc1ccccc1C(=O)Nc1cccc(-c2csc(-c3sc(NC(=O)NC)nc3N)n2)c1 | 29% |
| C=CCC(=O)Nc1cccc(-c2csc(-c3sc(NC(=O)NC)nc3N)n2)c1 | -13% |
| CNC(=O)Nc1nc(N)c(-c2nc(-c3cccc(NC(=O)CC4=CCCCC4)c3)cs2)s1 | 82% |
| CNC(=O)Nc1nc(N)c(-c2nc(-c3cccc(NC(=O)C4CC(=O)N(C)C4)c3)cs2)s1 (stereo not shown) | -4% |
| CNC(=O)Nc1nc(N)c(-c2nc(-c3cccc(NC(=O)C4CCC(=O)CC4)c3)cs2)s1 | 12% |

Same assay, conditions: Homo sapiens, HUVEC, table following Table II (untitled); 1 nM; crude combinatorial library

| SMILES | inhibition at 0.001 µM |
| --- | --- |
| COc1cc(Nc2nc(N)c(-c3nc(-c4cc(NC(=O)c5cc(C)nn5C)ccc4C)no3)s2)cc(OC)c1OC | -23% |
| COc1cc(Nc2nc(N)c(-c3nc(-c4cc(NC(=O)C(=O)Cc5ccccc5)ccc4C)no3)s2)cc(OC)c1OC | 23% |
| COc1cccc(C(=O)Nc2ccc(C)c(-c3noc(-c4sc(Nc5cc(OC)c(OC)c(OC)c5)nc4N)n3)c2)c1 [drawing 1122] | 35% |

Same assay, conditions: Homo sapiens, HUVEC, table following Table II (untitled); 10 nM; crude combinatorial library; read-out: % inhibition @ 10 nM

| SMILES | inhibition at 0.01 µM |
| --- | --- |
| COc1cc(Nc2nc(N)c(-c3nc(-c4cc(NC(=O)c5cc(C)nn5C)ccc4C)no3)s2)cc(OC)c1OC | 109% |
| COc1cc(Nc2nc(N)c(-c3nc(-c4cc(NC(=O)C(=O)Cc5ccccc5)ccc4C)no3)s2)cc(OC)c1OC | 21% |
| COc1cccc(C(=O)Nc2ccc(C)c(-c3noc(-c4sc(Nc5cc(OC)c(OC)c(OC)c5)nc4N)n3)c2)c1 [drawing 1122] | 94% |

Same assay, conditions: Table I screening results; 150 nM; crude combinatorial amide library

| SMILES | % inhibition @ 150 nM |
| --- | --- |
| COc1cc(/C=C/C(=O)Nc2cccc(-c3csc(-c4sc(Nc5cc(OC)c(OC)c(OC)c5)nc4N)n3)c2)cc(OC)c1OC | 0% |
